The values below come from patent publication US5716953A, “1,5-benzodiazepine derivatives” (Glaxo Wellcome S.p.A., priority 1993, dated 1998).

Structures can show the parent of a compound that is named as a salt. Where two headings read alike, the source gives them in different places.

One data set concerns mice. In words: oral administration to mice, observation of untoward effects at anxiolytic doses. To be noted: orally; for untoward effects: at doses at which the compounds exhibit anxiolytic activity. Format: in vivo. The source says:
(§1) The compounds of the invention are essentially non-toxic and therapeutically useful doses.

Another data set relates to rats. In words: oral administration to rats, observation of untoward effects at anxiolytic doses. Particulars: orally. It counts as in vivo.
Description: as §1

For a further data set, the target named is T1, CCK-B receptor (Cavia porcellus, UniProt H0VZC5).
T1 construct: CCK-B receptor (guinea pig cortex assay); from tissue; host or cells: guinea pig cortex
T1 sequence (H0VZC5 1-426): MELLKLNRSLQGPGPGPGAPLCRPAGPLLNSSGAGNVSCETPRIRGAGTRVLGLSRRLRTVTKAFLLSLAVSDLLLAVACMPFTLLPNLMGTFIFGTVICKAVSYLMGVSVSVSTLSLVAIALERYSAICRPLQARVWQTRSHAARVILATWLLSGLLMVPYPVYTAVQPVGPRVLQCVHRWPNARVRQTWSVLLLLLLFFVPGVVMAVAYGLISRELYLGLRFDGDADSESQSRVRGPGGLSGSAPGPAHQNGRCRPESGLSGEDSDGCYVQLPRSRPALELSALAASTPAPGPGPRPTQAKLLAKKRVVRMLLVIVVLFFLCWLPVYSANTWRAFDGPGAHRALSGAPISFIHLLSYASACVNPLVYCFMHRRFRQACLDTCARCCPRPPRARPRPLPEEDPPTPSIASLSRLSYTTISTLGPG
In words: CCK-B receptor binding (guinea pig cortex assay). How it is done:
The greater affinity of the compounds of the invention for the CCK-B receptor over the CCK-A receptor has also been established using the CCK receptor binding assays described by G Dal Forno et al., J. Pharmcol. Exp & Ther. 261, 1056-1063, 1992.
The binding affinity of the compounds of the invention for the CCK-A receptor (Pancreas Assay) and CCK-B receptor (guinea pig cortex assay) was determined using the procedure of G Dal Forno et al J. Pharmacol. Exp & Ther. 261-1056-1063. The pKi values determined with representative compounds of invention were as follows: […]

The next data set has as its target CCK-A receptor. In words: CCK-A receptor binding (Pancreas Assay). As for the experimental part:
Exp & Ther. 261, 1056-1063, 1992.
The binding affinity of the compounds of the invention for the CCK-A receptor (Pancreas Assay) and CCK-B receptor (guinea pig cortex assay) was determined using the procedure of G Dal Forno et al J. Pharmacol. Exp & Ther. 261-1056-1063.

[1] abbreviates: CCK-B receptor, guinea pig cortex assay, read-out: pKi CCK-B (converted).

As for `O=C(Nc1ccccc1)NC1C(=O)N(CCN2CCOCC2)c2ccccc2N(CC23CC4CC(CC(C4)C2)C3)C1=O` (single isomer, unassigned; (-)) [Example 18, (-)[1-(1-Adamantylmethyl)-2,4-dioxo-5-[2-(4-morpholino)ethyl]-2,3,4,5-tetrahydro-1H-1,5-benzodiazepin-3-yl]-N'-phenylurea, hydrochloride salt], the anxiolytic activity entry in the data set with mice and with rats was “exhibit anxiolytic activity” each time. The untoward effects entry with mice and in the data set with rats (at doses at which the compounds exhibit anxiolytic activity) was “no untoward effects were observed” each time.
For `O=C(Nc1ccccc1)NC1C(=O)N(CCN2CCCC2)c2ccccc2N(CC23CC4CC(CC(C4)C2)C3)C1=O` (stereo not shown) [Example 10, N-[1-(1-Adamantylmethyl)-2,4-dioxo-5-[2-(1-pyrrolidino)ethyl]-2,3,4,5-tetrahydro-1H-benzodiazepin-3-yl]-N'-phenylurea], the Ki on CCK-B receptor (setting [1]) is 1.05 nM. Moreover, the “pKi CCK-A” value on CCK-A receptor turned out to be 5.02.
On CCK-B receptor, `Cc1cccc(NC(=O)NC2C(=O)N(CCN3CCCCCC3)c3ccccc3N(c3ccccc3)C2=O)c1` (stereo not shown) [Example 17, N-[2,4-Dioxo-1-[2-(hexamethyleneimino)ethyl]-5-phenyl-2,3,4,5-tetrahydro-1H-benzodiazepin-3-yl]-N'-(3-tolyl)urea] showed a Ki of 2 nM. Further, the “pKi CCK-A” value at CCK-A receptor was 5.08.
With `CC(C)CCN1C(=O)C(NC(=O)Nc2ccc(C(F)(F)F)cc2)C(=O)N(CCN2CCOCC2)c2ccccc21` (stereo not shown) [Example 16, N-[2,4-Dioxo-1-(3-methyl-1-butyl)-5-[2-(4-morpholino)ethyl]-2,3,4,5-tetrahydro-1H-1,5-benzodiazepin-3-yl]-N'-(4-trifluoromethyl)phenylurea], the Ki at CCK-B receptor (setting [1]) was 3.63 nM. In addition, the “pKi CCK-A” value at CCK-A receptor was found to be 5.83.
Take `CN(C)CCN1C(=O)C(NC(=O)Nc2ccccc2)C(=O)N(CC23CC4CC(CC(C4)C2)C3)c2ccccc21` (stereo not shown) [Example 7, N-[1-(1-Adamantylmethyl)-5-[2-(dimethylamino)ethyl]-2,4-dioxo-2,3,4,5-tetrahydro-1H-1,5-benzodiazepin-3-yl]-N'-phenylurea]: on CCK-B receptor (setting [1]), the Ki is 1.29 nM. Further, the “pKi CCK-A” value on CCK-A receptor is on record as 5.49.
For `CC(C)CCN1C(=O)C(NC(=O)Nc2ccccc2)C(=O)N(CCN2CCCCC2)c2ccccc21` (stereo not shown) [Example 2, N-[2,4-Dioxo-1-(3-methyl-1-butyl)-5-[2-(1-piperidino)ethyl]-2,3,4,5-tetrahydro-1H-1,5-benzodiazepin-3-yl]-N'-phenylurea], in that order: 6.76 nM and 5.69.
Consider `O=C(Nc1ccccc1)NC1C(=O)N(CCN2CCOCC2)c2ccccc2N(CC23CC4CC(CC(C4)C2)C3)C1=O` (stereo not shown) [Example 9, N-[1-(1-Adamantylmethyl)-2,4-dioxo-5-[2-(4-morpholino)ethyl]-2,3,4,5-tetrahydro-1H-benzodiazepin-3-yl]-N'-phenylurea], for which the Ki on CCK-B receptor (setting [1]) is 0.575 nM. Further, the “pKi CCK-A” value at CCK-A receptor stood at 5.69.
The like results for `CC(C)CCN1C(=O)C(NC(=O)Nc2ccccc2)C(=O)N(CCN(C)C)c2ccccc21` (stereo not shown) [Example 3, N-[5-[2-(Dimethylamino)ethyl]-2,4-dioxo-1-(3-methyl-1-butyl) -2,3,4,5-tetrahydro-1H-1,5-benzodiazepin-3-yl]-N'-phenylurea] were, in that order, 4.68 nM and 5.48.
The like results for `CCN(CC)CCN1C(=O)C(NC(=O)Nc2ccccc2)C(=O)N(CC2CCCCC2)c2ccccc21` (stereo not shown) [Example 13, N-[1-(Cyclohexylmethyl)-2,4-dioxo-5-[(2-diethylamino)ethyl]-2,3,4,5-tetrahydro-1H-1,5-benzodiazepin-3-yl]-N'-phenylurea] were, in that order, 1.02 nM and 5.82.
With `CC(C)CCN1C(=O)C(NC(=O)Nc2ccc(O)cc2)C(=O)N(CCN2CCOCC2)c2ccccc21` (stereo not shown) [Example 5, N-[2,4-Dioxo-1-(3-methyl-1-butyl)-5-[2-(4-morpholinyl)ethyl]-2,3,4,5-tetrahydro-1H-1,5-benzodiazepin-3-yl]-N'-(4-hydroxyphenyl)urea], the Ki on CCK-B receptor (setting [1]) was 7.41 nM. On CCK-A receptor, the “pKi CCK-A” value is given as 5.08.
The like results for `CN(C)CCCN1C(=O)C(NC(=O)Nc2ccccc2)C(=O)N(CC23CC4CC(CC(C4)C2)C3)c2ccccc21` (stereo not shown) [Example 8, N-[1-(1-Adamantylmethyl)-5-[3-(dimethylamino)propyl]-2,4-dioxo-2,3,4,5-tetrahydro-1H-1,5-benzodiazepin-3-yl]-N'-phenylurea] were, in that order, 3.63 nM and 4.69.
`O=C(Nc1ccccc1)NC1C(=O)N(CCN2CCOCC2)c2ccccc2N(CC23CC4CC(CC(C4)C2)C3)C1=O` (single isomer, unassigned) [Example 11 (isomer 1), N-[1-(1-Adamantylmethyl)-2,4-dioxo-5-[2-(4-morpholino)ethyl]-2,3,4,5-tetrahydro-1H-benzodiazepin-3-yl]-N'-phenylurea Isomer 1]: in the data set with mice, the anxiolytic activity result is listed as “exhibit anxiolytic activity” and the untoward effects entry is “no untoward effects were observed”. Further, on CCK-B receptor (setting [1]), the Ki is 0.214 nM. Moreover, the “pKi CCK-A” value at CCK-A receptor is on record as 5.69.
Regarding `CC(C)CCN1C(=O)C(NC(=O)Nc2ccccc2)C(=O)N(CCN2CCOCC2)c2ccccc21` (stereo not shown) [Example 1, N-[2,4-Dioxo-1-(3-methyl-1-butyl)-5-[2-(4-morpholinyl)ethyl]-2,3,4,5-tetrahydro-1H-1,5-benzodiazepin-3-yl]-N'-phenylurea], the Ki at CCK-B receptor (setting [1]) is 2.88 nM. For the same molecule, the “pKi CCK-A” value at CCK-A receptor is reported as 6.17.
For `COc1ccc(NC(=O)NC2C(=O)N(CCC(C)C)c3ccccc3N(CCN3CCOCC3)C2=O)cc1` (stereo not shown) [Example 4, N-[2,4-Dioxo-1-(3-methyl-1-butyl)-5-[2-(4-morpholino)ethyl]-2,3,4,5-tetrahydro-1H-1,5-benzodiazepin-3-yl]-N'-(4-methoxyphenyl)urea], in that order: 7.94 nM and 5.29.
With `CCN(CC)CCN1C(=O)C(NC(=O)Nc2ccccc2)C(=O)N(CCC(C)C)c2ccccc21` (stereo not shown) [Example 6], the Ki on CCK-B receptor (setting [1]) is 1.58 nM. At CCK-A receptor, the “pKi CCK-A” value turned out to be 5.39.
Turning to `N[C@@H](CO)CN1C(=O)C(NC(=O)Nc2ccccc2)C(=O)N(CC23CC4CC(CC(C4)C2)C3)c2ccccc21` (stereo partly drawn) [Example 12, N-[1-(1-Adamantylmethyl)-2,4-dioxo-5-[(3-hydroxy-2(R)amino)propyl]-2,3,4,5-tetrahydro-1H-1,5-benzodiazepin-3-yl]-N'-phenylurea hydrochloride], the “pKi CCK-B” value at CCK-B receptor (CCK-B receptor, guinea pig cortex assay) worked out at 8.18. Besides, the “pKi CCK-A” value on CCK-A receptor stood at 5.04.
Turning to `CC(C)CCN1C(=O)C(NC(=O)Nc2ccc(Cl)cc2)C(=O)N(CCN2CCOCC2)c2ccccc21` (stereo not shown) [Example 15, N-[1-(3-methyl-1-butyl)-2,4-dioxo-5-[2-(4-morpholino)ethyl]-2,3,4,5-tetrahydro-1H-benzodiazepin-3-yl]-N'-(4-chlorophenyl)urea], the Ki on CCK-B receptor (setting [1]) was 1.95 nM. Further, the “pKi CCK-A” value on CCK-A receptor was found to be 5.99.
For `O=C(Nc1ccccc1)NC1C(=O)N(CCN2CCOCC2)c2cc(F)ccc2N(CC23CC4CC(CC(C4)C2)C3)C1=O` (stereo not shown) [Example 14, N-[1-(1-Adamantylmethyl)-2,4-dioxo-7-fluoro-5-[2-(4-morpholino)ethyl]-2,3,4,5-tetrahydro-1H-1,5-benzodiazepin-3-yl]-N'-phenylurea], in that order: 4.37 nM and 5.88.
